Results from US12344603B2 (Genentech, Inc., priority 2020, dated 2025).
Structures can show the parent of a compound that is named as a salt.

Target: IRE1α (Homo sapiens (Human), UniProt O75460, D688N)
Assay: IRE1α TR-FRET competition binding assay (IRE1α HTRF)
Conditions: TR-FRET competition binding to kinase domain of IRE1α
How it was run: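 Kinase domain (0.25 nM) pre-bound to 2 nM Eu anti-His antibody for 1 h at 4° C in HEPES pH 7.5/MgCl2/Brij 35/DTT/gamma globulin buffer, then mixed with compounds and 2 nM Alexa 647 ATP-competitive probe. 1 h at room temperature; probe displacement read as TR-FRET (Ex 347 nm, Em 665/615 nm).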

Sequence of IRE1α (O75460 547-977 D688N): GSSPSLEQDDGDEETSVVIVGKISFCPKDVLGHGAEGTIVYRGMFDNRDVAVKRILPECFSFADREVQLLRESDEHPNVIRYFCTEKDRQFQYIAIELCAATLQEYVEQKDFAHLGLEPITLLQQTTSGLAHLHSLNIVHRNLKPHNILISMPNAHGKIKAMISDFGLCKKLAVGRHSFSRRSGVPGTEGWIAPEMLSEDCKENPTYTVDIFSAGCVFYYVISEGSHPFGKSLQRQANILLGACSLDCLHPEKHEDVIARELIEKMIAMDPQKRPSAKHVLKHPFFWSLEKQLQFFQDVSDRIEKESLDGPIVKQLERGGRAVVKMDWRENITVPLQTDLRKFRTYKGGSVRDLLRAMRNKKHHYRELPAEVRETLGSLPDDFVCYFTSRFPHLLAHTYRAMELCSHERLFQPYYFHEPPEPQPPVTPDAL

SMILES | IC50 [nM]
Cc1nc(NS(=O)(=O)c2ccccc2Cl)ccc1-c1cc2cnc(N[C@@H]3CNC[C@@H](F)C3)nc2n(C(C)C)c1=O [Compound 133, 2-Chloro-N-(5-(2-(((3S,5S)-5-fluoropiperidin-3-yl)amino)-8-isopropyl-7-oxo-7,8-dihydropyrido[2,3-d]pyrimidin-6-yl)-6-methylpyridin-2-yl)benzenesulfonamide] | 0.62
Cc1nc(NS(=O)(=O)c2ccccc2C#N)ccc1-c1nc2cnc(N[C@H]3CC[C@H](N(C)CCF)CC3)nc2n(C(C)C)c1=O [Compound 194, 2-Cyano-N-(5-(2-(((1r,4r)-4-((2-fluoroethyl)(methyl)amino)cyclohexyl)amino)-8-isopropyl-7-oxo-7,8-dihydropteridin-6-yl)-6-methylpyridin-2-yl)benzenesulfonamide] | 0.31
CC(C)n1c(=O)c(-c2cc(F)c(NS(=O)(=O)CC3(C(F)(F)F)CC3)c(F)c2)nc2cnc(N[C@H]3CC[C@H](N(C)C)CC3)nc21 [Example 240, N-[4-[2-[[4-(Dimethylamino)cyclohexyl]amino]-8-isopropyl-7-oxo-pteridin-6-yl]-2,6-difluoro-phenyl]-1-[1-(trifluoromethyl)cyclopropyl]methanesulfonamide] | 0.1
CC(C)n1c(=O)c(-c2ccc(NS(=O)(=O)N(C)C)c(F)c2)nc2cnc(N[C@@H]3CNC[C@@H](F)C3)nc21 [Compound 164, 6-(4-(Dimethylsulfamoylamino)-3-fluoro-phenyl)-2-(((3S,5S)-5-fluoro-3-piperidyl)amino)-8-isopropyl-7-oxo-pteridine] | 0.43
CC(C)n1c(=O)c(-c2ccc(NS(=O)(=O)Cc3ccc(F)cc3)c(F)c2)nc2cnc(N[C@H]3CC[C@H](N(C)C)[C@@H](F)C3)nc21 (stereo in doubt) [Compound 181B, N-(4-(2-((4-(Dimethylamino)-3-fluorocyclohexyl)amino)-8-isopropyl-7-oxo-7,8-dihydropteridin-6-yl)-2-fluorophenyl)-1-(4-fluorophenyl)methanesulfonamide] | 0.15
CC(C)n1c(=O)c(-c2ccc(NS(=O)(=O)CC3CCC3)c(F)c2)nc2cnc(N[C@H]3CC[C@H](N(C)C)CC3)nc21 [Example 278, 1-Cyclobutyl-N-[4-[2-[[4-(dimethylamino)cyclohexyl]amino]-8-isopropyl-7-oxo-pteridin-6-yl]-2-fluoro-phenyl]methanesulfonamide] | 0.2
COc1ccc(CS(=O)(=O)Nc2c(F)cc(-c3cc4cnc(N[C@@H]5CNC[C@@H](F)C5)nc4n(C(C)C)c3=O)c(F)c2F)cc1 [Compound 57, 1-(4-Methoxyphenyl)-N-(2,3,6-trifluoro-4-(2-(((3S,5S)-5-fluoropiperidin-3-yl)amino)-8-isopropyl-7-oxo-7,8-dihydropyrido[2,3-d]pyrimidin-6-yl)phenyl)methanesulfonamide] | 0.14
CC(C)n1c(=O)c(-c2ccc(NS(=O)(=O)CCC(F)(F)F)c(F)c2F)cc2cnc(N[C@H]3CC[C@H](N(C)C)CC3)nc21 [Compound 197, N-(4-(2-(((1,4-trans)-4-(Dimethylamino)cyclohexyl)amino)-8-isopropyl-7-oxo-7,8-dihydropyrido[2,3-d]pyrimidin-6-yl)-2,3-difluorophenyl)-3,3,3-trifluoropropane-1-sulfonamide] | 0.26
CC(C)n1c(=O)c(-c2ccc(NS(=O)(=O)CC3CC4(CCC4)C3)c(F)c2)nc2cnc(N[C@H]3CC[C@H](N(C)C)CC3)nc21 [Example 260, N-[4-[2-[[4-(Dimethylamino)cyclohexyl]amino]-8-isopropyl-7-oxo-pteridin-6-yl]-2-fluoro-phenyl]-1-spiro[3.3]heptan-2-yl-methanesulfonamide] | 0.2
COCCN(C)C1CCC(Nc2ncc3cc(-c4cc(F)c(NS(=O)(=O)Cc5ccccc5)c(F)c4F)c(=O)n(C(C)C)c3n2)CC1 (single isomer, unassigned) [Compound 102B, 1-Phenyl-N-(2,3,6-trifluoro-4-(8-isopropyl-2-((4-((2-methoxyethyl)(methyl)amino)cyclohexyl)amino)-7-oxo-7,8-dihydropyrido[2,3-d]pyrimidin-6-yl)phenyl)methanesulfonamide] | 66
CC(C)n1c(=O)c(-c2ccc(NS(=O)(=O)Cc3ccc(F)cc3)c(F)c2)nc2cnc(N[C@@H]3CC[C@@H](N(C)C)[C@H](F)C3)nc21 (stereo in doubt) [Compound 181A, N-(4-(2-((4-(Dimethylamino)-3-fluorocyclohexyl)amino)-8-isopropyl-7-oxo-7,8-dihydropteridin-6-yl)-2-fluorophenyl)-1-(4-fluorophenyl)methanesulfonamide] | 0.16
CC(C)n1c(=O)c(-c2ccc(NS(=O)(=O)c3ccccc3Cl)nc2)cc2cnc(N[C@H]3CC[C@H](N(C)C)CC3)nc21 [Compound 105, 2-Chloro-N-(5-(2-(((1r,4r)-4-(dimethylamino)cyclohexyl)amino)-8-isopropyl-7-oxo-7,8-dihydropyrido[2,3-d]pyrimidin-6-yl)pyridin-2-yl)benzenesulfonamide] | 0.16
CC(C)n1c(=O)c(-c2ccc(NS(=O)(=O)CC3Cc4ccccc4C3)c(F)c2)nc2cnc(N[C@H]3CC[C@H](N(C)C)CC3)nc21 [Example 268, N-[4-[2-[[4-(Dimethylamino)cyclohexyl]amino]-8-isopropyl-7-oxo-pteridin-6-yl]-2-fluoro-phenyl]-1-indan-2-yl-methanesulfonamide] | 0.1
CC(C)n1c(=O)c(-c2ccc(NS(=O)(=O)CCC(F)(F)F)c(F)c2)cc2cnc(N[C@H]3CC[C@H](N(C)C4CC4)CC3)nc21 [Compound 207, N-(4-(2-(((1,4-trans)-4-(Cyclopropyl(methyl)amino)cyclohexyl)amino)-8-isopropyl-7-oxo-7,8-dihydropyrido[2,3-d]pyrimidin-6-yl)-2-fluorophenyl)-3,3,3-trifluoropropane-1-sulfonamide] | 0.21
COc1cccc(CS(=O)(=O)Nc2c(F)cc(-c3cc4cnc(N[C@@H]5CNC[C@@H](F)C5)nc4n(C(C)C)c3=O)c(F)c2F)c1 [Compound 31, 1-(3-Methoxyphenyl)-N-(2,3,6-trifluoro-4-(2-(((3S,5S)-5-fluoropiperidin-3-yl)amino)-8-isopropyl-7-oxo-7,8-dihydropyrido[2,3-d]pyrimidin-6-yl)phenyl)methanesulfonamide hydrochloride] | 0.11
CC(C)n1c(=O)c(-c2ccc(NS(=O)(=O)CC3CC(F)(F)C3)c(F)c2)nc2cnc(N[C@H]3CC[C@H](N(C)CCF)CC3)nc21 [Compound 180, 1-(3,3-Difluorocyclobutyl)-N-(2-fluoro-4-(2-(((1r,4r)-4-((2-fluoroethyl)(methyl)amino)cyclohexyl)amino)-8-isopropyl-7-oxo-7,8-dihydropteridin-6-yl)phenyl)methanesulfonamide] | 0.29
O=c1c(-c2ccc(NS(=O)(=O)Cc3ccccc3)c(F)c2F)cc2cnc(N[C@@H]3CNC[C@@H](F)C3)nc2n1CC1CC1 [Compound 52, N-(4-(8-(cyclopropylmethyl)-2-(((3S,5S)-5-fluoropiperidin-3-yl)amino)-7-oxo-7,8-dihydropyrido[2,3-d]pyrimidin-6-yl)-2,3-difluorophenyl)-1-phenylmethanesulfonamide trifluoroacetate salt] | 0.8
